Assay results: patent US8404435B2, “Enigma-Mdm2 interaction and uses thereof” (Korea Research Institute of Bioscience and Biotechnology, priority 2009, dated 2013)

Tests used:
[1] = test system: Mdm2+/+p53-/- MEF cell lines; assay: HGF effect on SRF-Enigma-Mdm2 pathway with or without PD98059; type: cell-based, mouse; details: Ad-p53 or Ad-LacZ induced
Excerpt: Since an MAP kinase is known to be associated with SRF expression by cell growth factor (J Physiol Pharmacol 53, 147-157, 53, 2002), the present inventors hypothesized that an MAP kinase is associated with regulation of SRF-Enigma-Mdm2 pathway, and tested by using PD98059, MAP kinase-specific inhibitor. The present inventors treated the cells with HGF and with or without PD98059 after inducing Ad-p53 or Ad-LacZ into Mdm2^+/+p53^−/− MEF cell lines. As the result, PD98059 abolished the HGF effect on SRF-Enigma-Mdm2 pathway (FIG. 10E).

[2] = test system: MEF (mouse embryonic fibroblast); assay: Serum response of SRF-Enigma-Mdm2 pathway in MEF; type: cell-based
Experimental: (§1) The present inventors identified serum response by using MRC5 (human normal fibroblast), MEF (mouse embryonic fibroblast) to identify presence of SRF-Enigma-Mdm2 pathway in normal cells. In case of MRC5, activity of SRF-Enigma-Mdm2 pathway by serum was inhibited when siSRF (10, 15 μg) is induced or PD98059 is present; in case of MEF, activity of SRF-Enigma-Mdm2 pathway was inhibited by PD98059 (FIGS. 12A and 12C). Thus, an amount of protein by transcriptional activity increased for SRF, Enigma, transcript level for Mdm2 (p1-Mdm2) and p53 was unvaried. However, transcript level for p2-Mdm2 changed dependently on an amount of p53 expression (FIGS. 12B and 12D).

[3] = test system: MRC5 (human normal fibroblast); assay: Serum response of SRF-Enigma-Mdm2 pathway in MRC5; type: cell-based
Experimental: as §1

Mdm2 [4] = biological target: T1, Mdm2 (Homo sapiens, UniProt Q00987); assay: In vitro ubiquitination assay; type: biochemical
T1 construct: His; made in house; host or cells: E. coli
T1 sequence (Q00987 whole entry): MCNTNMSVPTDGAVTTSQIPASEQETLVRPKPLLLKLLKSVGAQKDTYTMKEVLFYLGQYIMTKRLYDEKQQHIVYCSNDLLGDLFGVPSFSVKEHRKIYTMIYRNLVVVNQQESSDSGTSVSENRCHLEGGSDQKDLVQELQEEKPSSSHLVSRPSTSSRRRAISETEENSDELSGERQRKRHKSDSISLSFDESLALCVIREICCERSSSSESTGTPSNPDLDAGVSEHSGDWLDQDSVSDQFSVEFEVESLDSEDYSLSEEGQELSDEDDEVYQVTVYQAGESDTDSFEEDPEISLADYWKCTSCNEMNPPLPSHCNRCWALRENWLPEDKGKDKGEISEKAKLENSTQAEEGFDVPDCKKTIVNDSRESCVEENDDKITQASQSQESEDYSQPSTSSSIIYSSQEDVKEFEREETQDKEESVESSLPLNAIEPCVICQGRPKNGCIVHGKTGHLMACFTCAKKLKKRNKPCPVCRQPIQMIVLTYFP
Experimental: In vitro ubiquitination assay was performed to test self-ubiquitination of Mdm2 by Enigma's binding. After ubiquitin reaction mixture (including E1, E2, His-Ub, ATP) was added and reacted to His-Mdm2 protein (0.5 μg), His-Mdm2 (C464A: 0.5 μg), Enigma protein (0.5, 1 μg), F-EniΔLIM3 (1 μg), a change in self-ubiquitination and binding proteins for Mdm2 were identified by an IP/IB method. As the result, self-ubiquitination of Mdm2 was inhibited by F-Enigma, which binds to Mdm2, and Enigma had no effect on an Mdm2 (C464A) variant where 464-cysteine on the Mdm2 RING finger region was substituted by alanine (FIG. 7C). Also, Enigma stimulated Mdm2-mediated p53 ubiquitination in vitro (FIG. 7D). Thus, Enigma was identified as a determining factor that shifts specificity of Mdm2 E3 ligase from itself toward p53.
PCAF (p300-CBP-associated factor) induces the ubiquitination of Mdm2 (Nat Cell Biol 9, 331-338, 2007). When proteins purified from bacteria and described in FIG. 5-1a were used to perform an in-vitro ubiquitin experiment, Enigma had no effect on Mdm2 ubiquitination by PCAF (FIG. 8A). This event was also tested in an Mdm2^−/−p53^−/− MEF cell line (FIG. 8B).

Mdm2 [5] = biological target: T1, Mdm2; assay: In vitro binding assay (GST pull-down / IP) of purified proteins; details: proteins purified from E. coli
Experimental: The present inventors, to test interaction between Enigma and Mdm2, generated mutants (F-PDZ, F-PDZ-LIM1, F-LIM) of Enigma in pCMVtaq2B vector by a common PCR cloning method, and produced mutants (GST-1-100, GST-101-491, GST-201-491, GST-301-491) of Mdm2 in pEBG vector by a PCR cloning method. His-Mdm2, Enigma, GST-p53, EniΔLIM3 proteins were respectively separated and purified from E. coli to identify the interaction in vitro.
In vitro binding assay was performed to identify directly in-vitro interaction between respective proteins (1 μg His-Mdm2, 0.5 μg Enigma, 1 μg GST-p53) which are separated and purified from E. coli. Binding between respective proteins were induced after mixing, the bindings between proteins were identified by a GST pull-down and an IP method.
A binding site was determined by using respective mutants produced from Enigma and Mdm2. First, each mutant vector (5 μg) was introduced into a 293 cell line where Hag-Enigma is constitutively expressed, and afterwards binding was identified by GST pull-down and by a Western blotting with a Hag antibody (FIG. 5D). Also, each Enigma mutant (5 μg) and GST-Mdm2 expression vector (5 μg) were introduced into a 293T cell line (ATCC) by a calcium phosphate method. At 24 hours, the cells were collected, and binding was identified by IP with a Flag antibody and by a Western blotting with a GST antibody (FIG. 5E). […]

HLK3 cell line = assay: HGF effect on SRF-Enigma-Mdm2-p53 pathway, Western blotting; type: cell-based; details: HGF 40, 60 ng/ml, 4 hours before cell collection
Experimental: The present inventors investigated whether SRF-Enigma-Mdm2 pathway is also regulated by HGF. The present inventors, to show specific relevance of SRF, Enigma, identified changes in each protein by a Western blotting after inducing 10 μg each of siEnigma, siSRF into an HLK3 cell line, culturing them in a condition of removing serum, and processing each with HGF (40, 60 ng/ml) 4 hours before cell collection. […] Furthermore, the present inventors observed a change in Enigma and Mdm2 after directly inducing F-SRF into an HLK3 cell line concentration-wise (5, 10 μg).

mouse liver = assay: SRF-Enigma-Mdm2-p53 pathway in mouse liver, Western blotting; type: in vivo, mice (Balb/c); details: HGF 100 μg/kg into tail vein, livers removed time-wise
Experimental: The present inventors identified a change in SRF-Enigma-Mdm2-p53 by a Western blotting after injecting each of Ad-p53 or Ad-LacZ virus (5×10^8 pfu) into tail vein of mice (Balb/c, Female, Taconic) and after 24 hours injecting HGF (100 μg/kg) into tail vein of mice again, removing livers time-wise. As the result, HGF induced protein expression by transcriptionally activating SRF, Enigma was induced by SRF at transcription level, and an amount of protein increased.
The present inventors, to observe a change in Mdm2-p53 according to a direct change in an amount of Enigma expression, identified an amount of each protein by a Western blotting after injecting or not injecting Ad-p53 into tail vein of mice (Balb/c, Female, Taconic) and after 24 hours injecting Ad-F-Enigma, Ad-LacZ, PBS into tail vein of mice again, removing livers after 48 hours. Furthermore, after injecting Ad-siEnigma, Ad-siControl and PBS into tail vein and injecting HGF into tail vein 8 hours before liver removal.

Enigma promoter = assay: SRE-Luc / ΔSRE-Luc Enigma promoter reporter assay; type: cell-based; details: HLK3; 20, 40 ng/ml, 6 hours
Experimental: After Enigma-Luc was induced into an HLK3 cell line (0.5 μg), was cultured in DMEM with 0.1% […] for 24 hours, and was cultured with 5% and 20% FBS added for 6 hours again, luciferase activity of collected cells were measured. As the result, activity of Enigma-Luc increased dependently on the concentration of serum (FIG. 9B).
After SRE-Luc (0.5 μg), ΔSRE-Luc (0.5 μg), which were produced to test SRF dependence of Enigma expression, were induced into an HLK3 cell line, the cells were cultured in DMEM with 0.1% FBS for 24 hours, and were cultured with 5% and 20% FBS, FGF (20, 40 ng/ml), or HGF (20, 40 ng/ml) added for 6 hours again, luciferase activity of collected cells were measured.

Compound: COc1cccc(-c2cc(=O)c3ccccc3o2)c1N [PD98059]
- HGF effect on SRF-Enigma-Mdm2 pathway [1]: abolished
- activity of SRF-Enigma-Mdm2 pathway [2]: inhibited
- activity of SRF-Enigma-Mdm2 pathway by serum [3]: inhibited

Compound: Enigma: Enigma protein separated and purified from E. coli
- Mdm2-mediated p53 ubiquitination in vitro (Mdm2 [4]): stimulated
- Mdm2 ubiquitination by PCAF in vitro (Mdm2 [4]): no effect
- self-ubiquitination of Mdm2 in vitro (Mdm2 [4]; Enigma protein 0.5, 1 μg, His-Mdm2 0.5 μg): inhibited
- binding to Mdm2 in vitro (Mdm2 [5]): bound to Mdm2 directly

Compound: HGF: growth factor
- changes in SRF, Enigma, Mdm2, p53 protein (HLK3 cell line): an increase in SRF-Enigma-Mdm2 and a SRF- or Enigma-dependent decrease in p53
- amount of protein of Mdm2 and p53 in liver (mouse liver): the amount of protein in Mdm2 increased and simultaneously that of p53 decreased
- reporter activity of SRE-Luc but not ΔSRE-Luc (Enigma promoter): increased dependently on the concentration of growth factor
